Test results published in BindingDB's records for doi:10.1021/acs.jmedchem.8b00435 (Shanghaitech University, 2018).

experiment: Agonist activity at adenosine A3 receptor (unknown origin) expressed in serum starved CHO cells assessed as increase in cell survival after 24 hrs by propidium iodide staining-based assay

**Q.** Which EC50 does the source give for `CNC(=O)[C@@]12C[C@@H]1[C@@H](n1cnc3c(NCc4cccc(Cl)c4)nc(C#Cc4ccc5ccc6cccc7ccc4c5c67)nc31)[C@H](O)[C@@H]2O` here?
**A.** The EC50 was 13 nM.

**Q.** For `CNC(=O)[C@@]12C[C@@H]1[C@@H](n1cnc3c(NCc4cccc(Cl)c4)nc(C#Cc4ccccc4)nc31)[C@H](O)[C@@H]2O`, which EC50 is on record?
**A.** The EC50 was 0.2 nM.

**Q.** For `CNC(=O)[C@@]12C[C@@H]1[C@@H](n1cnc3c(NCc4cccc(Cl)c4)nc(C#Cc4ccc(-c5ccccc5)cc4)nc31)[C@H](O)[C@@H]2O`, which EC50 is on record?
**A.** Its EC50 is 0.251 nM.

**Q.** With `CNC(=O)[C@@]12C[C@@H]1[C@@H](n1cnc3c(NCc4cccc(Cl)c4)nc(C#Cc4cc5cccc6ccc7cccc4c7c65)nc31)[C@H](O)[C@@H]2O` as the compound, how does the EC50 read?
**A.** The EC50 was 20 nM.
